Data taken from ChEMBL document CHEMBL1128782, “Nucleosides and nucleotides. 142. an alternative synthesis of and its antiviral activity” (Bioorg Med Chem Lett, 1995).
Converted amounts (≈) assume the structure as drawn.

Assays:
Influenza A virus = assay: Effective dose required to reduce virus induced cytopathogenicity by Influenza A(H1N1,Fu 88) was determined; format: functional, organism-based
Influenza B virus [1] = assay: Effective dose required to reduce virus induced cytopathogenicity by Influenza B(singapore) was determined; format: functional, organism-based
[2] = tested on: Vesicular stomatitis virus; assay: Effective dose required for plaque reduction in vesicular stomatitis virus (VSV) was determined; format: functional, organism-based
Influenza B virus [3] = assay: Effective dose required to reduce virus induced cytopathogenicity by Influenza B(Fu 207) was determined; format: functional, organism-based
Human betaherpesvirus 5 = assay: Effective dose required for plaque reduction in human cytomegalovirus (HCMV) was determined; format: functional, organism-based
Influenza B virus [4] = assay: Effective dose required to reduce virus induced cytopathogenicity by Influenza B (Fu 207) was determined; format: functional, organism-based
[5] = Evaluated for time-dependent and irreversible inhibitor of bovine S-adenosyl-L-homocysteine; parameters: species or system Bos taurus

SMILES	EC50 (Influenza A virus) [µg/mL]	EC50 (Influenza B virus [1]) [µg/mL]	EC50 [2] [µg/mL]	EC50 (Influenza B virus [3]) [µg/mL]	EC50 (Human betaherpesvirus 5) [µg/mL]	EC50 (Influenza B virus [4]) [µg/mL]	Ki [5] [nM]
NC(=O)c1ncn([C@@H]2O[C@H](CO)[C@@H](O)[C@H]2O)n1 [RIBAVIRIN]	19.6 (≈ 80.3 µM)	6.7 (≈ 27.4 µM)	> 10	36.9 (≈ 151 µM)	> 10		
Nc1ncnc2c1ncn2C1O[C@H](C=C(Br)Br)[C@@H](O)[C@H]1O (some centres not stated)			> 10		> 10	32 (≈ 76 µM)	
C#C[C@H]1OC(n2cnc3c(N)ncnc32)[C@H](O)[C@@H]1O (some centres not stated)	0.38 (≈ 1.45 µM)	0.9 (≈ 3.45 µM)	0.14 (≈ 0.536 µM)	1.8 (≈ 6.89 µM)	8.2 (≈ 31.4 µM)		173
N#C[C@H]1OC(n2cnc3c(N)ncnc32)[C@H](O)[C@@H]1O (some centres not stated)			1.2 (≈ 4.58 µM)	10 (≈ 38.1 µM)	1.4 (≈ 5.34 µM)		
Nc1ncnc2c1ncn2[C@@H]1C=C(CO)[C@@H](O)[C@H]1O [NEOPLANOCIN A]	> 20	> 20	0.38 (≈ 1.44 µM)	> 20	0.2 (≈ 0.76 µM)		
